According to patent US7994177B2, “Therapeutic agents useful for treating pain” (Purdue Pharma L.P., priority 2003, dated 2011):

Experiments:
human VR1 [1] = target: T1, human VR1 (Homo sapiens, UniProt Q8NER1); test: Capsaicin-based assay of human VR1 (FLIPR calcium influx); type: cell-based; settings: activation by capsaicin (400 nM), HEK293-EcR cells expressing human VR1, n=3
T1 construct: expressed in transfected cells
Description: (§1) Human VR1 Cloning: Human spinal cord RNA (commercially available from Clontech, Palo Alto, Calif.) was used. Reverse transcription was conducted on 1.0 μg total RNA using Thermoscript Reverse Transcriptase (commercially available from Invitrogen) and oligo dT primers as detailed in its product description. Reverse transcription reactions were incubated at 55° C. for 1 h, heat-inactivated at 85° C. for 5 min, and RNase H-treated at 37° C. for 20 min.
(§2) Human VR1 cDNA sequence was obtained by comparison of the human genomic sequence, prior to annotation, to the published rat sequence. Intron sequences were removed and flanking exonic sequences were joined to generate the hypothetical human cDNA. Primers flanking the coding region of human VR1 were designed as follows: forward primer, […]; and reverse primer, […]. […]
(§3) Generation of Inducible Cell Lines: Unless noted otherwise, cell culture reagents were purchased from Life Technologies of Rockville, Md. […] On the day of assay, cells were loaded with Fluo-4 (a calcium-sensitive dye that is commercially available from Molecular Probes) and CAP-mediated calcium influx was measured using a FLIPR as described below. […]

human VR1 [2] = target: T1, human VR1; test: pH-based assay of human VR1 (FLIPR calcium influx); type: cell-based; settings: agonist buffer pH 5.5, HEK293-EcR cells expressing human VR1, n=4
Description: as §1, §2, §3

T1 sequence (Q8NER1 whole entry): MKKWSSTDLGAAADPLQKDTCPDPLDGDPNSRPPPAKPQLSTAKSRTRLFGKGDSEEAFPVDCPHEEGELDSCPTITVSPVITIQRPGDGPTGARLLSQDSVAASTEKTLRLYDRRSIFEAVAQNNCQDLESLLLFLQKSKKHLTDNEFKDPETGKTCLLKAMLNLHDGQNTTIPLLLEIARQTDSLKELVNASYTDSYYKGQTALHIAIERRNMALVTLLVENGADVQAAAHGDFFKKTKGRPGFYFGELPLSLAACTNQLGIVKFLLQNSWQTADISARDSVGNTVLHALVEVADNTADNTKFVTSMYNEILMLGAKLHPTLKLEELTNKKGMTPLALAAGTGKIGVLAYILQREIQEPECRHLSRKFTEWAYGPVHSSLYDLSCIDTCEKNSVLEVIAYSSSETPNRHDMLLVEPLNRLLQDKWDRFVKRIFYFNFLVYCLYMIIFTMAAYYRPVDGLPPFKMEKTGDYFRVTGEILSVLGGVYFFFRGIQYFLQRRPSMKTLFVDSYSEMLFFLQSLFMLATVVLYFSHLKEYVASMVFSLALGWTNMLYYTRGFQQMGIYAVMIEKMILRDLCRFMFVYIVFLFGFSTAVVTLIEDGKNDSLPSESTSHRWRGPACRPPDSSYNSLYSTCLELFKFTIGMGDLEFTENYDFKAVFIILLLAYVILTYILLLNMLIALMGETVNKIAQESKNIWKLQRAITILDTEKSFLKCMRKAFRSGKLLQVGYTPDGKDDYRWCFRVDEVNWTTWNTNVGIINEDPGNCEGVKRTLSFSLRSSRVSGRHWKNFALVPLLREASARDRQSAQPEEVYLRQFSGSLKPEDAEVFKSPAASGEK

Compound: Cc1cccnc1-c1ccc(C(=O)Nc2ccc(C(C)(C)C)cc2)nc1 [E35(a)]
- IC50 (human VR1 [1]): 65.5 ± 17.3 nM
- IC50 (human VR1 [2]): 826 ± 248 nM
